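How tested: cells in 96-well plates exposed to compound for 48 hours at five concentrations. TGI is the concentration that stops growth completely.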
System: BT-549 breast
Assay: growth of human tumour cells (NCI), 48 h

Structure (SMILES) | TGI [µM]
Nc1nc(N)c2cc(Sc3ccc4nc(N)nc(N)c4c3)ccc2n1 | > 100
COc1ccc2c(c1)/C(=C\c1c(C)nc3n1CCS3)C(=O)N2 | 86.3
CC1=NN(C(=O)CC(=O)Nc2ccc(C)cc2)C(=O)C1N=Nc1ccc(C(=O)O)cc1 (configuration not stated) | > 100
Cc1cc([C@H](C#N)c2nc3ccccc3[nH]2)nc(Cl)n1 | > 100
CN(C)C=Nc1cccc2nsnc12 | > 100
COc1cccc(OC/C(N=Cc2cccnc2)=N/NC(=O)c2ccncc2)c1 | > 100
COC(=O)c1c(O)ccc2c1c1c(n2Cc2ccccc2)C(=O)c2ccccc2C1=O | 31.6
N#C/C(=C\c1cn(Cc2ccccc2)c2ccccc12)c1nn(-c2ccccc2)c(N)c1C#N | 58.3
CO[C@H]1c2cccc3cccc(c23)[C@@H]1n1[nH]c(=O)n(C(C)(C)C)c1=O | > 100
CCC(C)C(C(=O)N/N=C1/SCC(=O)N1c1ccccc1)C(=O)N/N=C1/SCC(=O)N1c1ccccc1 (configuration not stated) | > 100
Cc1c(C)c2c(c(N)c1C#N)C(=O)N(CCc1ccccc1)C2=O | > 100

System: DU-145 prostate
Assay: growth of human tumour cells (NCI), 48 h

Structure (SMILES) | TGI [µM]
Nc1nc(N)c2cc(Sc3ccc4nc(N)nc(N)c4c3)ccc2n1 | > 100
COc1ccc2c(c1)/C(=C\c1c(C)nc3n1CCS3)C(=O)N2 | > 100
CC1=NN(C(=O)CC(=O)Nc2ccc(C)cc2)C(=O)C1N=Nc1ccc(C(=O)O)cc1 (configuration not stated) | > 100
Cc1cc([C@H](C#N)c2nc3ccccc3[nH]2)nc(Cl)n1 | > 100
CN(C)C=Nc1cccc2nsnc12 | > 100
COc1cccc(OC/C(N=Cc2cccnc2)=N/NC(=O)c2ccncc2)c1 | > 100
COC(=O)c1c(O)ccc2c1c1c(n2Cc2ccccc2)C(=O)c2ccccc2C1=O | 49.9
N#C/C(=C\c1cn(Cc2ccccc2)c2ccccc12)c1nn(-c2ccccc2)c(N)c1C#N | 32.2
CO[C@H]1c2cccc3cccc(c23)[C@@H]1n1[nH]c(=O)n(C(C)(C)C)c1=O | > 100
CCC(C)C(C(=O)N/N=C1/SCC(=O)N1c1ccccc1)C(=O)N/N=C1/SCC(=O)N1c1ccccc1 (configuration not stated) | > 100
Cc1c(C)c2c(c(N)c1C#N)C(=O)N(CCc1ccccc1)C2=O | > 100

System: HL-60(TB) leukemia
Assay: growth of human tumour cells (NCI), 48 h

Structure (SMILES) | TGI [µM]
Nc1nc(N)c2cc(Sc3ccc4nc(N)nc(N)c4c3)ccc2n1 | > 100
COc1ccc2c(c1)/C(=C\c1c(C)nc3n1CCS3)C(=O)N2 | 66.8
CC1=NN(C(=O)CC(=O)Nc2ccc(C)cc2)C(=O)C1N=Nc1ccc(C(=O)O)cc1 (configuration not stated) | > 100
Cc1cc([C@H](C#N)c2nc3ccccc3[nH]2)nc(Cl)n1 | > 100
CN(C)C=Nc1cccc2nsnc12 | > 100
COc1cccc(OC/C(N=Cc2cccnc2)=N/NC(=O)c2ccncc2)c1 | > 100
COC(=O)c1c(O)ccc2c1c1c(n2Cc2ccccc2)C(=O)c2ccccc2C1=O | 47.2
N#C/C(=C\c1cn(Cc2ccccc2)c2ccccc12)c1nn(-c2ccccc2)c(N)c1C#N | > 100
CO[C@H]1c2cccc3cccc(c23)[C@@H]1n1[nH]c(=O)n(C(C)(C)C)c1=O | > 100
CCC(C)C(C(=O)N/N=C1/SCC(=O)N1c1ccccc1)C(=O)N/N=C1/SCC(=O)N1c1ccccc1 (configuration not stated) | > 100
Cc1c(C)c2c(c(N)c1C#N)C(=O)N(CCc1ccccc1)C2=O | > 100

System: HT29 colon
Assay: growth of human tumour cells (NCI), 48 h

Structure (SMILES) | TGI [µM]
Nc1nc(N)c2cc(Sc3ccc4nc(N)nc(N)c4c3)ccc2n1 | > 100
COc1ccc2c(c1)/C(=C\c1c(C)nc3n1CCS3)C(=O)N2 | > 100
CC1=NN(C(=O)CC(=O)Nc2ccc(C)cc2)C(=O)C1N=Nc1ccc(C(=O)O)cc1 (configuration not stated) | > 100
Cc1cc([C@H](C#N)c2nc3ccccc3[nH]2)nc(Cl)n1 | > 100
CN(C)C=Nc1cccc2nsnc12 | > 100
COc1cccc(OC/C(N=Cc2cccnc2)=N/NC(=O)c2ccncc2)c1 | > 100
COC(=O)c1c(O)ccc2c1c1c(n2Cc2ccccc2)C(=O)c2ccccc2C1=O | 22.6
N#C/C(=C\c1cn(Cc2ccccc2)c2ccccc12)c1nn(-c2ccccc2)c(N)c1C#N | 27.3
CO[C@H]1c2cccc3cccc(c23)[C@@H]1n1[nH]c(=O)n(C(C)(C)C)c1=O | > 100
CCC(C)C(C(=O)N/N=C1/SCC(=O)N1c1ccccc1)C(=O)N/N=C1/SCC(=O)N1c1ccccc1 (configuration not stated) | > 100

System: IGROV1 ovarian
Assay: growth of human tumour cells (NCI), 48 h

Structure (SMILES) | TGI [µM]
Nc1nc(N)c2cc(Sc3ccc4nc(N)nc(N)c4c3)ccc2n1 | > 100
COc1ccc2c(c1)/C(=C\c1c(C)nc3n1CCS3)C(=O)N2 | > 100
CC1=NN(C(=O)CC(=O)Nc2ccc(C)cc2)C(=O)C1N=Nc1ccc(C(=O)O)cc1 (configuration not stated) | > 100
Cc1cc([C@H](C#N)c2nc3ccccc3[nH]2)nc(Cl)n1 | > 100
CN(C)C=Nc1cccc2nsnc12 | > 100
COc1cccc(OC/C(N=Cc2cccnc2)=N/NC(=O)c2ccncc2)c1 | > 100
COC(=O)c1c(O)ccc2c1c1c(n2Cc2ccccc2)C(=O)c2ccccc2C1=O | 25.8
N#C/C(=C\c1cn(Cc2ccccc2)c2ccccc12)c1nn(-c2ccccc2)c(N)c1C#N | 30.7
CO[C@H]1c2cccc3cccc(c23)[C@@H]1n1[nH]c(=O)n(C(C)(C)C)c1=O | > 100
CCC(C)C(C(=O)N/N=C1/SCC(=O)N1c1ccccc1)C(=O)N/N=C1/SCC(=O)N1c1ccccc1 (configuration not stated) | > 100
Cc1c(C)c2c(c(N)c1C#N)C(=O)N(CCc1ccccc1)C2=O | > 100

System: KM12 colon
Assay: growth of human tumour cells (NCI), 48 h

Structure (SMILES) | TGI [µM]
Nc1nc(N)c2cc(Sc3ccc4nc(N)nc(N)c4c3)ccc2n1 | > 100
COc1ccc2c(c1)/C(=C\c1c(C)nc3n1CCS3)C(=O)N2 | > 100
CC1=NN(C(=O)CC(=O)Nc2ccc(C)cc2)C(=O)C1N=Nc1ccc(C(=O)O)cc1 (configuration not stated) | > 100
Cc1cc([C@H](C#N)c2nc3ccccc3[nH]2)nc(Cl)n1 | 28.1
COc1cccc(OC/C(N=Cc2cccnc2)=N/NC(=O)c2ccncc2)c1 | > 100
COC(=O)c1c(O)ccc2c1c1c(n2Cc2ccccc2)C(=O)c2ccccc2C1=O | 29.7
N#C/C(=C\c1cn(Cc2ccccc2)c2ccccc12)c1nn(-c2ccccc2)c(N)c1C#N | > 100
CO[C@H]1c2cccc3cccc(c23)[C@@H]1n1[nH]c(=O)n(C(C)(C)C)c1=O | > 100
CCC(C)C(C(=O)N/N=C1/SCC(=O)N1c1ccccc1)C(=O)N/N=C1/SCC(=O)N1c1ccccc1 (configuration not stated) | 93.9
Cc1c(C)c2c(c(N)c1C#N)C(=O)N(CCc1ccccc1)C2=O | > 100

System: MALME-3M melanoma
Assay: growth of human tumour cells (NCI), 48 h

Structure (SMILES) | TGI [µM]
Nc1nc(N)c2cc(Sc3ccc4nc(N)nc(N)c4c3)ccc2n1 | > 100
CC1=NN(C(=O)CC(=O)Nc2ccc(C)cc2)C(=O)C1N=Nc1ccc(C(=O)O)cc1 (configuration not stated) | > 100
Cc1cc([C@H](C#N)c2nc3ccccc3[nH]2)nc(Cl)n1 | > 100
CN(C)C=Nc1cccc2nsnc12 | > 100
COc1cccc(OC/C(N=Cc2cccnc2)=N/NC(=O)c2ccncc2)c1 | > 100
COC(=O)c1c(O)ccc2c1c1c(n2Cc2ccccc2)C(=O)c2ccccc2C1=O | 54.7
N#C/C(=C\c1cn(Cc2ccccc2)c2ccccc12)c1nn(-c2ccccc2)c(N)c1C#N | 47.4
CO[C@H]1c2cccc3cccc(c23)[C@@H]1n1[nH]c(=O)n(C(C)(C)C)c1=O | > 100
CCC(C)C(C(=O)N/N=C1/SCC(=O)N1c1ccccc1)C(=O)N/N=C1/SCC(=O)N1c1ccccc1 (configuration not stated) | 44.7
Cc1c(C)c2c(c(N)c1C#N)C(=O)N(CCc1ccccc1)C2=O | > 100

System: MDA-MB-231 breast
Assay: growth of human tumour cells (NCI), 48 h

Structure (SMILES) | TGI [µM]
Nc1nc(N)c2cc(Sc3ccc4nc(N)nc(N)c4c3)ccc2n1 | > 100
COc1ccc2c(c1)/C(=C\c1c(C)nc3n1CCS3)C(=O)N2 | > 100
CC1=NN(C(=O)CC(=O)Nc2ccc(C)cc2)C(=O)C1N=Nc1ccc(C(=O)O)cc1 (configuration not stated) | > 100
Cc1cc([C@H](C#N)c2nc3ccccc3[nH]2)nc(Cl)n1 | > 100
CN(C)C=Nc1cccc2nsnc12 | > 100
COc1cccc(OC/C(N=Cc2cccnc2)=N/NC(=O)c2ccncc2)c1 | > 100
COC(=O)c1c(O)ccc2c1c1c(n2Cc2ccccc2)C(=O)c2ccccc2C1=O | 32.2
N#C/C(=C\c1cn(Cc2ccccc2)c2ccccc12)c1nn(-c2ccccc2)c(N)c1C#N | 14.2
CO[C@H]1c2cccc3cccc(c23)[C@@H]1n1[nH]c(=O)n(C(C)(C)C)c1=O | > 100
CCC(C)C(C(=O)N/N=C1/SCC(=O)N1c1ccccc1)C(=O)N/N=C1/SCC(=O)N1c1ccccc1 (configuration not stated) | 88.7
Cc1c(C)c2c(c(N)c1C#N)C(=O)N(CCc1ccccc1)C2=O | > 100

System: MDA-MB-435
Assay: growth of human tumour cells (NCI), 48 h

Structure (SMILES) | TGI [µM]
Nc1nc(N)c2cc(Sc3ccc4nc(N)nc(N)c4c3)ccc2n1 | > 100
COc1ccc2c(c1)/C(=C\c1c(C)nc3n1CCS3)C(=O)N2 | 11.5
CC1=NN(C(=O)CC(=O)Nc2ccc(C)cc2)C(=O)C1N=Nc1ccc(C(=O)O)cc1 (configuration not stated) | > 100
Cc1cc([C@H](C#N)c2nc3ccccc3[nH]2)nc(Cl)n1 | > 100
CN(C)C=Nc1cccc2nsnc12 | > 100
COc1cccc(OC/C(N=Cc2cccnc2)=N/NC(=O)c2ccncc2)c1 | > 100
COC(=O)c1c(O)ccc2c1c1c(n2Cc2ccccc2)C(=O)c2ccccc2C1=O | 28
N#C/C(=C\c1cn(Cc2ccccc2)c2ccccc12)c1nn(-c2ccccc2)c(N)c1C#N | 74.6
CO[C@H]1c2cccc3cccc(c23)[C@@H]1n1[nH]c(=O)n(C(C)(C)C)c1=O | > 100
CCC(C)C(C(=O)N/N=C1/SCC(=O)N1c1ccccc1)C(=O)N/N=C1/SCC(=O)N1c1ccccc1 (configuration not stated) | 35.9
Cc1c(C)c2c(c(N)c1C#N)C(=O)N(CCc1ccccc1)C2=O | > 100

System: MOLT-4 leukemia
Assay: growth of human tumour cells (NCI), 48 h

Structure (SMILES) | TGI [µM]
Nc1nc(N)c2cc(Sc3ccc4nc(N)nc(N)c4c3)ccc2n1 | > 100
COc1ccc2c(c1)/C(=C\c1c(C)nc3n1CCS3)C(=O)N2 | > 100
Cc1cc([C@H](C#N)c2nc3ccccc3[nH]2)nc(Cl)n1 | > 100
CN(C)C=Nc1cccc2nsnc12 | > 100
COc1cccc(OC/C(N=Cc2cccnc2)=N/NC(=O)c2ccncc2)c1 | > 100
COC(=O)c1c(O)ccc2c1c1c(n2Cc2ccccc2)C(=O)c2ccccc2C1=O | 25.3

Reference: PubChem BioAssay (NCI)
